# In patent US3985875A, “ω-(N-acylamino)alkylphosphoryl ethanolamines, pharmaceutical compositions containing them, and their uses” (Dainippon Pharmaceutical Co., Ltd., priority 1974, dated 1976):
# What was measured:
# renal hypertensive rats [1] = test: Antihypertensive activity in rats, p.o. (Table 4); assay type: in vivo, rat; conditions: 100 mg/kg/day p.o.
# High renin plasma = biological target: T1, High renin plasma (Canis lupus familiaris, UniProt Q6DYE7); test: Renin-inhibitory activity, Method II (high renin plasma of dog, inhibition of Angiotensin I formation); assay type: biochemical; conditions: Table 2; 37°C, 4 hours, 1.25 mg/ml; read-out: Rate of inhibiting the formation of Angiotensin I determined by Method II
# T1 construct: High renin plasma prepared by constriction of the renal artery of a dog anesthetized with Nembutal; from tissue; host or cells: plasma of a dog with constricted renal artery
# T1 sequence (Q6DYE7 66-403): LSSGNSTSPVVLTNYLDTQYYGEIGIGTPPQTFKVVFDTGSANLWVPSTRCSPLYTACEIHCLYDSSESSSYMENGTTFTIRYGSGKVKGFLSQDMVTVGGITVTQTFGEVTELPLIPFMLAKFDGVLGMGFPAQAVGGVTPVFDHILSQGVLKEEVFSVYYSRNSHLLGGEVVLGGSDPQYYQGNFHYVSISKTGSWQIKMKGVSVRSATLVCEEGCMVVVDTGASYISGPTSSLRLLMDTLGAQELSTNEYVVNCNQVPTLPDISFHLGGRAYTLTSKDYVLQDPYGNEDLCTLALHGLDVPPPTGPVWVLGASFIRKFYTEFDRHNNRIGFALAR
# renal hypertensive rats [2] = test: Antihypertensive activity in renal hypertensive rats, i.m. (Table 3); assay type: in vivo, rat; conditions: 30 mg/kg/day i.m.
# plasma cholesterol level = test: Cholesterol-lowering activity in rats (modified Greenberg method); assay type: in vivo, rat; conditions: 100 mg/Kg oral once a day, 5 consecutive days
# Procedure: The effect of each of the test compounds on the plasma cholesterol level was examined in rats according to a slightly modified form of the C. M. Greenberg et al. method described in Am. J. Physiol., Vol. 202 (1961), p. 732. Rats were treated once a day with a 100 mg/Kg oral dose for 5 consecutive days instead of 7 days.
# Renin = biological target: T2, Renin (Homo sapiens, UniProt P00797); test: Renin-inhibitory activity, Method I (inhibition of Angiotensin I formation, RIA); assay type: biochemical; conditions: Table 2; 37°C, 4 hours, 1.25 mg/ml; read-out: Rate of inhibiting the formation of Angiotensin I determined by Method I
# T2 sequence (P00797 67-406): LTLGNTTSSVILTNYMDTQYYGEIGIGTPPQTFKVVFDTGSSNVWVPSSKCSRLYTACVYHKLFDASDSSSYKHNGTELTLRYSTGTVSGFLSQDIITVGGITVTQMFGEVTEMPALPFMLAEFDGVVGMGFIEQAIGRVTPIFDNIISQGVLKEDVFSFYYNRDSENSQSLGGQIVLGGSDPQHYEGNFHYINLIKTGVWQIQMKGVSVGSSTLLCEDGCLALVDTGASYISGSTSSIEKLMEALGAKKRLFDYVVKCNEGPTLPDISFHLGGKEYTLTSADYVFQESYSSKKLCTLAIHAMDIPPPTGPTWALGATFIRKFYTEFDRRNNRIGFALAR
# [3] = 1st day, 0 h (immediately before administration)
# [4] = 1st day, 5 hours after administration
# [5] = 2nd day, 5 hours after administration
# [6] = 3rd day, 0 h (immediately before administration)
# [7] = 3rd day, 5 hours after administration
# [8] = 4th day, 0 h (immediately before administration)
# [9] = 5th day, 0 h (immediately before administration)
# [10] = 5th day, 5 hours after administration
# [11] = 6th day, 0 h (immediately before administration)
structure (smiles),measurement,setting,value
"CCCCCC=CCC=CCC=CCC=CCCCC(=O)OCC(COP(=O)(O)OCCN)OC(=O)CCCCCCCCCCCCCCCCC (racemic) [(a), rac-2-Octadecanoyl-3-(eicosa-5,8,11,14-tetraenoyl)glycero-1-phosphoryl ethanolamine, reference compound]","antihypertensive effect, oral administration (in words)",renal hypertensive rats [1],did not show such an effect
same,Changes of blood pressure,renal hypertensive rats [1]; [3],0 mmHg
same,Changes of blood pressure,renal hypertensive rats [1]; [4],+2 mmHg
same,Changes of blood pressure,"renal hypertensive rats [1]; 2nd day, 0 h (immediately before administration)",+1 mmHg
same,Changes of blood pressure,renal hypertensive rats [1]; [5],+5 mmHg
same,Changes of blood pressure,renal hypertensive rats [1]; [6],+2 mmHg
same,Changes of blood pressure,renal hypertensive rats [1]; [7],-2 mmHg
same,Changes of blood pressure,renal hypertensive rats [1]; [8],+1 mmHg
same,Changes of blood pressure,renal hypertensive rats [1]; [9],+2 mmHg
same,Changes of blood pressure,renal hypertensive rats [1]; [10],+2 mmHg
same,Changes of blood pressure,renal hypertensive rats [1]; [11],+1 mmHg
same,Changes of blood pressure,"renal hypertensive rats [1]; 7th day, 0 h (immediately before administration)",+1 mmHg
same,Changes of blood pressure,"renal hypertensive rats [1]; 7th day, 5 hours after administration",+2 mmHg
same,inhibition at 1250 µg/mL,High renin plasma,25%
same,Changes of blood pressure after drug withdrawal,renal hypertensive rats [2]; 1st day after withdrawal,-14 mmHg
same,Changes of blood pressure,renal hypertensive rats [2]; [3],0 mmHg
same,Changes of blood pressure,renal hypertensive rats [2]; [4],-26 mmHg
same,Changes of blood pressure after drug withdrawal,renal hypertensive rats [2]; 2nd day after withdrawal,-3 mmHg
same,Changes of blood pressure,renal hypertensive rats [2]; [5],-35 mmHg
same,Changes of blood pressure after drug withdrawal,renal hypertensive rats [2]; 3rd day after withdrawal,-1 mmHg
same,Changes of blood pressure,renal hypertensive rats [2]; [6],-5 mmHg
same,Changes of blood pressure,renal hypertensive rats [2]; [7],-29 mmHg
same,Changes of blood pressure,renal hypertensive rats [2]; [8],-5 mmHg
same,Changes of blood pressure,"renal hypertensive rats [2]; 4th day, 5 hours after administration",-34 mmHg
same,Changes of blood pressure,renal hypertensive rats [2]; [9],-13 mmHg
same,Changes of blood pressure,renal hypertensive rats [2]; [10],-33 mmHg
same,Changes of blood pressure,renal hypertensive rats [2]; [11],-13 mmHg
same,Changes of blood pressure,"renal hypertensive rats [2]; 6th day, 5 hours after administration",-43 mmHg
same,Cholesterol-lowering activity,plasma cholesterol level,0%
same,inhibition at 1250 µg/mL,Renin,< 10%
